The record followed here is patent publication US11878995B2, “Oxysterols and methods of use thereof” (SAGE THERAPEUTICS, INC., priority 2016, dated 2024).

This experiment addresses T1, GlunN1/GluN2A glutamate receptors (Homo sapiens, UniProt Q05586+Q12879).
T1 construct: expressed in transfected cells
Put plainly: Whole-cell patch clamp of mammalian cells (Ionworks Barracuda), NMDA potentiation. Type of experiment: cell-based. As to conditions: 3 μM compound; HEK293 cells expressing human GRIN1/GRIN2A; co-application with EC20 L-glutamate and 30 μM glycine. As for the experimental part:
NMDA potentiation was assessed using either whole cell patch clamp of mammalian cells which expressed NMDA receptors.
Whole-Cell Patch Clamp of Mammalian Cells (Ionworks Barracuda (IWB))
The whole-cell patch-clamp technique was used to investigate the effects of compounds on GlunN1/GluN2A glutamate receptors expressed in mammalian cells.
HEK293 cells were transformed with adenovirus 5 DNA and transfected with cDNA encoding the human GRIN1/GRIN2A genes. Stable transfectants were selected using G418 and Zeocin-resistance genes incorporated into the expression plasmid and selection pressure maintained with G418 and Zeocin in the medium. Cells were cultured in Dulbecco's Modified Eagle Medium/Nutrient Mixture (D-MEM/F-12) supplemented with 10% fetal bovine serum, 100 μg/ml penicillin G sodium, 100 μg/ml streptomycin sulphate, 100 μg/ml Zeocin, 5 μg/ml blasticidin and 500 μg/ml G418.
Test article effects were evaluated in 8-point concentration-response format (4 replicate wells/concentration). […]
• a) Intracellular solution (mM): 50 mM CsCl, 90 mM CsF, 2 mM MgCl2, 5 mM EGTA, 10 mM HEPES. […] Cell suspension will be pipetted into the wells (9 μL per well) of the PPC planar electrode. • b) Whole-cell recording configuration will be established via patch perforation with membrane currents recorded by on-board patch clamp amplifiers. • c) Two recordings (scans) will be performed. […]
On the technique in general: In patch-clamp work, channel activity is measured electrically.

Structures are written as SMILES.

T1 sequence (Q12879 23-1464, other chains not shown): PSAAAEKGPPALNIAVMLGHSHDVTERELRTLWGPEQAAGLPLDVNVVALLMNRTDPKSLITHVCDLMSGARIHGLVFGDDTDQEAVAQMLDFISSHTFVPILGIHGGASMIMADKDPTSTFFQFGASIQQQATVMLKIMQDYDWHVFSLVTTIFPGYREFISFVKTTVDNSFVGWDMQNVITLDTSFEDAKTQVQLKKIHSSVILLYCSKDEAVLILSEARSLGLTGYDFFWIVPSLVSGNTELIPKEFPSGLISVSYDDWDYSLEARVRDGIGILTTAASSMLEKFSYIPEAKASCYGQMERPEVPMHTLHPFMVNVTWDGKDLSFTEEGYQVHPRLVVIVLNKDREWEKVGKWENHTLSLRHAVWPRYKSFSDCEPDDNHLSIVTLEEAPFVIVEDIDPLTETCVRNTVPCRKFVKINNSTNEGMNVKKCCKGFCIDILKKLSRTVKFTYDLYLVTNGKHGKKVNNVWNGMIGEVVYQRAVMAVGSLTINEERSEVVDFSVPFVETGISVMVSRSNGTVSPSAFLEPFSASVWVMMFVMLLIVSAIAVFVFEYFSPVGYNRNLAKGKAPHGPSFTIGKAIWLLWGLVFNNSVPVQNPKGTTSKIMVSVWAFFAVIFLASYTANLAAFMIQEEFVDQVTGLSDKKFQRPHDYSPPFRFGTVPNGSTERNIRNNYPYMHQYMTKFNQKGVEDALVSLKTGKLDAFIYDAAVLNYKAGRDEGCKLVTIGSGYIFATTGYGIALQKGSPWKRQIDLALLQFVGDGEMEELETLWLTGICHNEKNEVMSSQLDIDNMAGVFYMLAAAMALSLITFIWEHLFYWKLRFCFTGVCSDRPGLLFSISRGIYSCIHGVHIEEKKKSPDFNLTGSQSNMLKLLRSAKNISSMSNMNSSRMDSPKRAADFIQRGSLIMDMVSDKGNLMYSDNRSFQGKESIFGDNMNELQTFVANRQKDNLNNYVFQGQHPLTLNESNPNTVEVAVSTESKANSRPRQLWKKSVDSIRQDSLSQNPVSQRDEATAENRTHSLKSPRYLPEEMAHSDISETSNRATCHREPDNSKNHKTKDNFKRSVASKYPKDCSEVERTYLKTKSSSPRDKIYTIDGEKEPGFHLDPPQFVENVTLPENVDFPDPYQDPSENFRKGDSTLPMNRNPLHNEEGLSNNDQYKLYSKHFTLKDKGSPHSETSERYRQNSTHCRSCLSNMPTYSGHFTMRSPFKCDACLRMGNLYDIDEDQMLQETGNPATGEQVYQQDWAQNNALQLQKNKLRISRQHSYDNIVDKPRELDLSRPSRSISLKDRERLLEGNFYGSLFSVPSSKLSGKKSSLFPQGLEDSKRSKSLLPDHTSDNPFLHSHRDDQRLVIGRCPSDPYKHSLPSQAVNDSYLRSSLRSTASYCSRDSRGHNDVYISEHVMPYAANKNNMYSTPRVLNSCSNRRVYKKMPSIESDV

Consider `[2H]C(O)(CC[C@@H](C)[C@H]1CC[C@H]2[C@@H]3CC=C4C[C@]([2H])(O)CC[C@]4(C)[C@H]3CC[C@]12C)C(C)C` (stereo partly shown) [Compound 7], for which the “GluN2A PCA IWB Ephys % potentiation at 3 μM” value is recorded as “C (“C” indicates potentiation of >150% to 225%)”.
